Source: patent US20250197864A1, “LNCRNA TRANSCRIPTS IN MELANOMAGENESIS” (The Regents of the University of California, priority 2021, published 2025)

What was measured:
[1] = test system: A-172 Glioblastoma cell line; assay: Cell viability assay (ATP quantitation); assay type: cell-based; details: 50 nM, 5 days, vs non-targeting control
Procedure, shortened: (§1)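 Transfection used Lipofectamine 3000 with 50 nM final oligonucleotide unless otherwise specified; MEKi was added for combination work. Plates were read for total luminescence at day 3 (synergy) or day 5 (ASO only).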

AV4 melanoma cell line = assay: Cell viability assay (ATP quantitation); assay type: cell-based; details: 50 nM, 5 days, vs non-targeting control
Procedure, shortened: as §1

[2] = test system: H1299 lung cancer cell line; assay: Cell viability assay (ATP quantitation); assay type: cell-based; details: 50 nM, 5 days, vs non-targeting control
Procedure, shortened: as §1

[3] = test system: H2228 lung cancer cell line; assay: Cell viability assay (ATP quantitation); assay type: cell-based; details: 50 nM, 5 days, vs non-targeting control
Procedure, shortened: as §1

[4] = test system: H82 lung cancer cell line; assay: Cell viability assay (ATP quantitation); assay type: cell-based; details: 50 nM, 5 days, vs non-targeting control
Procedure, shortened: as §1

[5] = test system: H929 multiple myeloma cell line; assay: Cell viability assay (ATP quantitation); assay type: cell-based; details: 50 nM, 5 days, vs non-targeting control
Procedure, shortened: as §1

[6] = test system: HCT116 colon carcinoma cell line; assay: Cell viability assay (ATP quantitation); assay type: cell-based; details: 50 nM, 5 days, vs non-targeting control
Procedure, shortened: as §1

[7] = test system: Hs940.T melanoma cell line; assay: Cell viability assay (ATP quantitation); assay type: cell-based; details: 50 nM, 5 days, vs non-targeting control
Procedure, shortened: as §1

[8] = test system: LS174 colon carcinoma cell line; assay: Cell viability assay (ATP quantitation); assay type: cell-based; details: 50 nM, 5 days, vs non-targeting control
Procedure, shortened: as §1

[9] = test system: MaMel30 melanoma cell line; assay: Cell viability assay (ATP quantitation); assay type: cell-based; details: 50 nM, 5 days, vs non-targeting control
Procedure, shortened: as §1

[10] = test system: SW1271 lung cancer cell line; assay: Cell viability assay (ATP quantitation); assay type: cell-based; details: 50 nM, 5 days, vs non-targeting control
Procedure, shortened: as §1

[11] = test system: SW480 colon carcinoma cell line; assay: Cell viability assay (ATP quantitation); assay type: cell-based; details: 50 nM, 5 days, vs non-targeting control
Procedure, shortened: as §1

[12] = test system: Sk-Mel-5 melanoma cell line; assay: Cell viability assay (ATP quantitation); assay type: cell-based; details: 50 nM, 5 days, vs non-targeting control
Procedure, shortened: as §1

[13] = test system: Sk-N-AS Neuroblastoma cell line; assay: Cell viability assay (ATP quantitation); assay type: cell-based; details: 50 nM, 5 days, vs non-targeting control
Procedure, shortened: as §1

[14] = test system: T98G Glioblastoma cell line; assay: Cell viability assay (ATP quantitation); assay type: cell-based; details: 50 nM, 5 days, vs non-targeting control
Procedure, shortened: as §1

[15] = test system: U138-MG Glioblastoma cell line; assay: Cell viability assay (ATP quantitation); assay type: cell-based; details: 50 nM, 5 days, vs non-targeting control
Procedure, shortened: as §1

[16] = test system: U20S osteosarcoma cell line; assay: Cell viability assay (ATP quantitation); assay type: cell-based; details: 50 nM, 5 days, vs non-targeting control
Procedure, shortened: as §1

[17] = test system: U87-MG Glioblastoma cell line; assay: Cell viability assay (ATP quantitation); assay type: cell-based; details: 50 nM, 5 days, vs non-targeting control
Procedure, shortened: as §1

[18] = test system: WM3060 melanoma cell line; assay: Cell viability assay (ATP quantitation); assay type: cell-based; details: 50 nM, 5 days, vs non-targeting control
Procedure, shortened: as §1

[19] = test system: hepatocellular carcinoma cell line HepG2; assay: Cell viability assay (ATP quantitation); assay type: cell-based; details: 50 nM, 120 hrs, Lipofectamine3000 2 ul/ml, vs non-targeting control ASO
Experimental: (§2) EsiRNA, siRNA and ASO GapmeRs were transfected in a final concentration of 50 nM unless mentioned otherwise and the transfection reagent Lipofectamine 3000 (2 ul/ml) was added according to the manufacturer's instructions.
(§3) Dependent on cell doubling time, 0.7-2×10^^3 cells were seeded in 96 well plates. 1 day after seeding cells were incubated in media with oligonucleotide concentration and/or MEKi and transfection reagent. 3 (synergy experiments) or 5 (solely ASO) days after transfection Total luminescence was measured on the SynergyHT plate reader (BioTek) using Gen5 software.
(§4) Cell viability was compared to treatment with non-targeting control ASO-treatment. Lipofectamine3000 concentration was 2 ul/ml.

[20] = test system: sarcoma cell line SK-LMS-1; assay: Cell viability assay (ATP quantitation); assay type: cell-based; details: SK-LMS-1 sarcoma; 50 nM, 120 hrs; Lipofectamine3000 2 ul/ml; vs non-targeting control ASO
Experimental: as §2, §3, §4

Caspase 3+7 = assay: Caspase Glo 3/7 assay in D04 cell line; assay type: cell-based, human; details: ASO 50 nM, 1 day, vs control ASOs
Experimental: Dependent on cell doubling time, 2-3×10^^3 cells were seeded in 96 well plates. 1 day after seeding cells were incubated in media with 50 nM oligonucleotide concentration and transfection reagent. 1 day after transfection Total luminescence was measured on the SynergyHT plate reader (BioTek) using Gen5 software. Experiments were performed in quadruplicates.

[21] = test system: gene expression in D04 melanoma cells; assay: DAVID Functional Annotation Clustering (GO term) analysis of DE genes; parameters: species or system human; details: RNA-Seq
Experimental: Differential expression (DE) analysis was done using DESeq2. Differentially expressed genes were defined by more than 1.5-fold changes (log 2 >0.58 or <−0.58) in expression with FDR<0.05. GO term analysis was done using DAVID Functional Annotation Clustering analysis.
To examine the biomolecular changes upon TRASH-inhibition in melanoma, D04 cells were treated with TRASH-ASOs (SEQ ID NO:15) and Control-ASOs and RNA was extracted and used for RNA-Seq. […] These GO terms consisted of genes encoding growth factors, tyrosine kinases, G protein coupled receptor subunits, and collagen subunits. Scatter plot diagram showing differential gene expression after TRASH-ASO treatment compared to Control-ASO treatment. (cut-off for significance was adjusted p-value <0.05). Data was obtained from RNA-Seq of D04 melanoma cells, treatment period was three days. (FIG. 5c)

D04 cells = assay: Repetition of drug treatment in surviving D04 cells (drug resistance test); assay type: cell-based, human; details: TRASH-ASO 50 nM or MEKi 15 nM (or 20 nM), recovery in drug free media, five days (120 hrs)
Experimental: as §3
Rescuing cells that survived initial TRASH-ASO (SEQ ID NO:15) and MEKi (trametinib) treatment and providing the rescued cells with a phase of regrowth in drug free media, was followed by repetition of the preceding drug treatment. […] Incubation time was 120 hrs, n=3. (FIG. 5d).

Q: What does the source list for “GACTGGAGATAATTAA (gapmer, pattern not given here) [SEQ ID NO: 15, GapmeR ASO targeting AC004540.4 (TRASH), exon region of both isoforms; used for in vitro experiments]”?
A: cell viability decrease [1]: significant cell viability decrease; cell viability decrease (AV4 melanoma cell line): significant cell viability decrease; cell viability decrease [2]: significant cell viability decrease; cell viability decrease [3]: significant cell viability decrease; cell viability decrease [4]: significant cell viability decrease; cell viability decrease [5]: significant cell viability decrease; cell viability decrease [6]: significant cell viability decrease; cell viability decrease [7]: significant cell viability decrease; cell viability decrease [8]: significant cell viability decrease; cell viability decrease [9]: significant cell viability decrease; cell viability decrease [10]: significant cell viability decrease; cell viability decrease [11]: significant cell viability decrease; cell viability decrease [12]: significant cell viability decrease; cell viability decrease [13]: significant cell viability decrease; cell viability decrease [14]: significant cell viability decrease; cell viability decrease [15]: significant cell viability decrease; cell viability decrease [16]: significant cell viability decrease; cell viability decrease [17]: significant cell viability decrease; cell viability decrease [18]: significant cell viability decrease; cell viability decrease [19]: significant cell viability decrease; cell viability decrease [20]: significant cell viability decrease; Caspase-3 &-7 activity increase (Caspase 3+7): 3.0 fold; top enriched GO term clusters associated with the down-regulated genes [21]: “ECM-receptor interaction” and “PI3K-AKT signaling pathway”; top enriched GO term clusters associated with the up-regulated genes [21]: “protein tyrosine kinase activity” (GO: 0004713) and “Ras guanyl-nucleotide exchange factor activity” (G00005088); cell-growth reduction on repetition of the preceding drug treatment in surviving cells (D04 cells; n=3, listed as SEQ ID NO:15): increased vulnerability; cell-growth reduction on repetition of the preceding drug treatment in surviving cells (D04 cells; n=3, listed as TRASH-ASO): significantly increased (p=0.004) cell-growth reduction
